System: 996289-038-R-J1-PDC spheroid viability
Experiment: Anticancer human tumor 996289-038-R-J1-PDC patient-derived colon adenocarcinoma cell line growth inhibition [PI3K]
Settings: spheroids with HUVEC and MSC; for IC50: curve of first compound; for viability, T/C: stronger effect = lower value
In short: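 Stroma-containing spheroids: tumor line, pooled-donor HUVEC, hMSC. Treatments: targeted agents with PI3K inhibitors. Dosing: clinically relevant, half-log spacing, 10 microM ceiling without known Cmax. Read-out: cell viability.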

[1] = second compound 0.0316 µM, first compound 0.0316 µM
[2] = second compound 0.0316 µM, first compound 0.1 µM
[3] = second compound 0.1 µM, first compound 0.0316 µM
[4] = second compound 0.1 µM, first compound 0.1 µM
[5] = second compound 0.316 µM, first compound 0.0316 µM
[6] = second compound 0.316 µM, first compound 0.1 µM
[7] = second compound 1 µM, first compound 0.0316 µM
[8] = second compound 1 µM, first compound 0.1 µM
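Also: spheroids exposed to compounds for seven days before viability read.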
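For viability, T/C in this document: luminescence used as a proxy for viable cell amount; percent viability relative to DMSO vehicle control as 100%.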

In the case of C=CC(=O)N1CCN(c2nc(=O)n(-c3c(C)ccnc3C(C)C)c3nc(-c4c(O)cccc4F)c(F)cc23)C(C)C1 (centres undefined) + Cc1nc(NC(=O)N2CCCC2C(N)=O)sc1-c1ccnc(C(C)(C)C(F)(F)F)c1, the IC50 (second compound 0.0316 µM) is reported as > 10000 nM, the IC50 (second compound 0.1 µM) is reported as > 10000 nM and the IC50 (second compound 0.316 µM) is reported as > 10000 nM. For the same molecule, the IC50 (second compound 1 µM) was > 10000 nM, the IC50 (second compound 3.16 µM) was > 10000 nM and the IC50 (second compound 10 µM) was 45.4 nM. It also gave a viability, T/C [1] of 91.4%, a viability, T/C [2] of 107% and a viability, T/C (second compound 0.0316 µM, first compound 0.316 µM) of 111%. It also gave a viability, T/C (second compound 0.0316 µM, first compound 1 µM) of 116%, a viability, T/C (second compound 0.0316 µM, first compound 3.16 µM) of 115% and a viability, T/C (second compound 0.0316 µM, first compound 10 µM) of 114%. It also gave a viability, T/C [3] of 87.5%, a viability, T/C [4] of 90.4% and a viability, T/C (second compound 0.1 µM, first compound 0.316 µM) of 90.5%. The viability, T/C (second compound 0.1 µM, first compound 1 µM) was 96.7%, the viability, T/C (second compound 0.1 µM, first compound 3.16 µM) was 122% and the viability, T/C (second compound 0.1 µM, first compound 10 µM) was 93.5%. It also gave a viability, T/C [5] of 79.8%, a viability, T/C [6] of 95.2% and a viability, T/C (second compound 0.316 µM, first compound 0.316 µM) of 94.7%. It also gave a viability, T/C (second compound 0.316 µM, first compound 1 µM) of 83.6%, a viability, T/C (second compound 0.316 µM, first compound 3.16 µM) of 97.5% and a viability, T/C (second compound 0.316 µM, first compound 10 µM) of 89.9%. It also gave a viability, T/C [7] of 88.6%, a viability, T/C [8] of 85.8% and a viability, T/C (second compound 1 µM, first compound 0.316 µM) of 75.6%. For the same molecule, the viability, T/C (second compound 1 µM, first compound 1 µM) was 87.5%, the viability, T/C (second compound 1 µM, first compound 3.16 µM) was 77.6% and the viability, T/C (second compound 1 µM, first compound 10 µM) was 80.1%. The viability, T/C (second compound 3.16 µM, first compound 0.0316 µM) was 59.5%, the viability, T/C (second compound 3.16 µM, first compound 0.1 µM) was 71.7% and the viability, T/C (second compound 3.16 µM, first compound 0.316 µM) was 74.7%. It also gave a viability, T/C (second compound 3.16 µM, first compound 1 µM) of 61.6%, a viability, T/C (second compound 3.16 µM, first compound 3.16 µM) of 64.4% and a viability, T/C (second compound 3.16 µM, first compound 10 µM) of 59.5%. For the same molecule, the viability, T/C (second compound 10 µM, first compound 0.0316 µM) was 50.5%, the viability, T/C (second compound 10 µM, first compound 0.1 µM) was 50.7% and the viability, T/C (second compound 10 µM, first compound 0.316 µM) was 43.2%. The viability, T/C (second compound 10 µM, first compound 1 µM) was 40.6%, the viability, T/C (second compound 10 µM, first compound 3.16 µM) was 48.8% and the viability, T/C (second compound 10 µM, first compound 10 µM) was 47.4%.
CC(=O)c1c(C)c2cnc(Nc3ccc(N4CCNCC4)cn3)nc2n(C2CCCC2)c1=O + CC(Nc1ccc2c(c1)OCCn1cc(N3C(=O)OCC3C(F)F)nc1-2)C(N)=O was tested, and the IC50 (second compound 0.00316 µM) was > 100 nM, the IC50 (second compound 0.01 µM) was > 100 nM and the IC50 (second compound 0.0316 µM) was > 100 nM. For the same molecule, the IC50 (second compound 0.1 µM) was > 100 nM, the IC50 (second compound 0.316 µM) was > 100 nM and the IC50 (second compound 1 µM) was 79.6 nM. It also gave a viability, T/C (second compound 0.00316 µM, first compound 0.000316 µM) of 89.9%, a viability, T/C (second compound 0.00316 µM, first compound 0.001 µM) of 106% and a viability, T/C (second compound 0.00316 µM, first compound 0.00316 µM) of 103%. For the same molecule, the viability, T/C (second compound 0.00316 µM, first compound 0.01 µM) was 93.9%, the viability, T/C (second compound 0.00316 µM, first compound 0.0316 µM) was 96.5% and the viability, T/C (second compound 0.00316 µM, first compound 0.1 µM) was 93.3%. It also gave a viability, T/C (second compound 0.01 µM, first compound 0.000316 µM) of 105%, a viability, T/C (second compound 0.01 µM, first compound 0.001 µM) of 90.5% and a viability, T/C (second compound 0.01 µM, first compound 0.00316 µM) of 101%. It also gave a viability, T/C (second compound 0.01 µM, first compound 0.01 µM) of 96.4%, a viability, T/C (second compound 0.01 µM, first compound 0.0316 µM) of 96.7% and a viability, T/C (second compound 0.01 µM, first compound 0.1 µM) of 92%. For the same molecule, the viability, T/C (second compound 0.0316 µM, first compound 0.000316 µM) was 101%, the viability, T/C (second compound 0.0316 µM, first compound 0.001 µM) was 85.3% and the viability, T/C (second compound 0.0316 µM, first compound 0.00316 µM) was 95.8%. The viability, T/C (second compound 0.0316 µM, first compound 0.01 µM) was 87.5%, the viability, T/C [1] was 92.8% and the viability, T/C [2] was 81.2%. For the same molecule, the viability, T/C (second compound 0.1 µM, first compound 0.000316 µM) was 82.2%, the viability, T/C (second compound 0.1 µM, first compound 0.001 µM) was 70% and the viability, T/C (second compound 0.1 µM, first compound 0.00316 µM) was 85.3%. The viability, T/C (second compound 0.1 µM, first compound 0.01 µM) was 92.5%, the viability, T/C [3] was 87.8% and the viability, T/C [4] was 76.5%. For the same molecule, the viability, T/C (second compound 0.316 µM, first compound 0.000316 µM) was 73%, the viability, T/C (second compound 0.316 µM, first compound 0.001 µM) was 81.6% and the viability, T/C (second compound 0.316 µM, first compound 0.00316 µM) was 63.4%. The viability, T/C (second compound 0.316 µM, first compound 0.01 µM) was 64.8%, the viability, T/C [5] was 70.9% and the viability, T/C [6] was 68.8%. It also gave a viability, T/C (second compound 1 µM, first compound 0.000316 µM) of 58.7%, a viability, T/C (second compound 1 µM, first compound 0.001 µM) of 72.5% and a viability, T/C (second compound 1 µM, first compound 0.00316 µM) of 58.9%. The viability, T/C (second compound 1 µM, first compound 0.01 µM) was 57.7%, the viability, T/C [7] was 57.8% and the viability, T/C [8] was 48.2%.
